# Laboratory results taken from US11666577B2 (National Institute of Biological Sciences, Beijing, priority 2018, dated 2023).
# System: HT-29 cells
# Experiment: Necroptosis assay (TNF-α/Smac mimetic/z-VAD, TSZ-induced) in HT-29 cells
# Assay type: cell-based, human
# Details: Homo sapiens, HT-29, 24 h; read-out: EC50 (nM), potency in TSZ-induced necroptosis assays in HT-29 cells
# In short: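 HT-29 cells were challenged with 20 ng/ml TNF-α, 100 nM Smac mimetic and 20 mM z-VAD while compound was added at the same time (library screen at 10 mM). After 24 h, viability was read as ATP luminescence (CellTiter-Glo) and normalized to DMSO-treated cells; values are means ± SD of duplicates.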
row,SMILES,EC50 [nM]
1,C#CCn1c(=O)n(C)c(=O)c2c1nc(S(C)(=O)=O)n2C [Compound 12],152 ± 23

# Same assay, conditions: Homo sapiens; Series 1 (Table 1) compounds 1-146; HT-29 cells, TNF-α/Smac mimetic/z-VAD, 24 hrs, cell viability by ATP level; read-out: Series 1 compound necroptosis activity
row,SMILES,EC50 [nM]
1,"CCCn1c(=O)n(C)c(=O)c2c1nc(S(C)(=O)=O)n2C [Compound 101, 1,7-dimethyl-8-(methylsulfonyl)-3-propyl-1H-purine-2,6(3H,7H)-dione]",1000 to 100000
2,"Cn1c(=O)c2c(nc(S(=O)(=O)CC3CC3)n2C)n(Cc2ccc(F)cc2)c1=O [Compound 135, 8-((cyclopropylmethyl)sulfonyl)-3-(4-fluorobenzyl)-1,7-dimethyl-1H-purine-2,6(3H,7H)-dione]",1000 to 100000
3,CC(C)S(=O)(=O)c1nc2c(c(=O)n(C)c(=O)n2C)n1C [Compound 18],1000 to 100000
4,"Cn1c(=O)c2c(nc(S(=O)(=O)CC3CC3)n2C)n(Cc2ccc(Cl)cc2)c1=O [Compound 138, 3-(4-chlorobenzyl)-8-((cyclopropylmethyl)sulfonyl)-1,7-dimethyl-1H-purine-2,6(3H,7H)-dione]",1000 to 100000

# Same assay, conditions: Homo sapiens; Series 2 (Table 2) compounds; HT-29 necroptosis assay; read-out: Series 2 compound necroptosis activity
row,SMILES,EC50 [nM]
1,Cn1c(=O)c2c(nc(S(C)(=O)=O)n2C)n(CC#Cc2cc(N)cc(NC(=O)C3CC3)c2)c1=O [Compound 40],1 to 100
2,COCCOCCNc1cccc(C#CCn2c(=O)n(C)c(=O)c3c2nc(S(C)(=O)=O)n3C)c1 [Compound 12],1 to 100
3,Cn1c(=O)c2c(nc(S(=O)(=O)CCCO)n2C)n(C)c1=O [Compound 3],100 to 10000
4,Cn1c(=O)c2c(nc(S(=O)(=O)NCc3ccccc3)n2C)n(C)c1=O [Compound 55],10000 to 100000
5,Cn1c(=O)c2c(nc(S(C)(=O)=O)n2C)n(CC#Cc2cc(F)cc(NC(=O)CN3CCOCC3)c2)c1=O [Compound 20],1 to 100
6,CCCCCNc1cccc(C#CCn2c(=O)n(C)c(=O)c3c2nc(S(C)(=O)=O)n3C)c1 [Compound 16],100 to 10000
7,Cn1c(=O)c2c(nc(S(C)(=O)=O)n2C)n(CC#Cc2cccc(NCc3ccccc3)c2)c1=O [Compound 13],1 to 100
8,Cn1c(=O)c2c(nc(S(C)(=O)=O)n2C)n(CC#Cc2cc(NC(=O)C3CC3)nc(C(F)(F)F)c2)c1=O [Compound 43],1 to 100
9,Cn1c(=O)c2c(nc(S(=O)(=O)CC3CC3)n2C)n(CC#Cc2cc(NC(=O)C3CC3)cc(C(F)(F)F)c2)c1=O [Compound 46],100 to 10000
10,Cn1c(=O)c2c(nc(S(C)(=O)=O)n2C)n(CC#Cc2cc(NC(=O)C3CC3)cc(C(F)(F)F)c2)c1=O [Compound 44],1 to 100
11,COc1cc(C#CCn2c(=O)n(C)c(=O)c3c2nc(S(C)(=O)=O)n3C)cc(NCCN2CCOCC2)c1 [Compound 21],1 to 100
12,CCNc1cc(C#CCn2c(=O)n(C)c(=O)c3c2nc(S(=O)(=O)CC2CC2)n3C)ccn1 [Compound 33],1 to 100
13,Cn1c(=O)c2c(nc(S(C)(=O)=O)n2C)n(CC#Cc2cccc(NCCN3CCOCC3)c2)c1=O [Compound 14],1 to 100

# Same assay, conditions: Series 1 (Table 1) compounds 1-146; HT-29 cells, TNF-α/Smac mimetic/z-VAD, 24 hrs, cell viability by ATP level; read-out: Series 1 compound necroptosis activity
row,SMILES,EC50 [nM]
1,"Cn1c(=O)c2c(nc(S(=O)(=O)Cc3cccc(Br)c3)n2C)n(C)c1=O [Compound 33, 8-(3-bromobenzylsulfonyl)-1,3,7-trimethyl-1H-purine-2,6(3H,7H)-dione]",1000 to 1e+06
2,"CCCn1c(=O)c2c(nc(S(C)(=O)=O)n2C)n(C)c1=O [Compound 90, 3,7-dimethyl-8-(methylsulfonyl)-1-propyl-1H-purine-2,6(3H,7H)-dione]",1000 to 1e+06
3,"Cn1c(=O)c2c(nc(S(=O)(=O)CC3CC3)n2C)n(Cc2ccncc2)c1=O [Compound 144, 8-((cyclopropylmethyl)sulfonyl)-1,7-dimethyl-3-(pyridin-4-ylmethyl)-1H-purine-2,6(3H,7H)-dione]",1000 to 1e+06
4,"Cn1c(=O)c2c(nc(S(=O)(=O)Cc3ccc(C(N)=O)cc3)n2C)n(C)c1=O [Compound 47, 4-((1,3,7-trimethyl-2,6-dioxo-2,3,6,7-tetrahydro-1H-purin-8-ylsulfonyl)methyl)benzamide]",1000 to 1e+06
5,"Cn1c(=O)c2c(nc(S(=O)(=O)Cc3cccc[n+]3[O-])n2C)n(C)c1=O [Compound 49, 2-((1,3,7-trimethyl-2,6-dioxo-2,3,6,7-tetrahydro-1H-purin-8-ylsulfonyl)methyl)pyridine 1-oxide]",1000 to 1e+06
6,"Cn1c(=O)c2c(nc(S(=O)(=O)Cc3ccc4ccccc4c3)n2C)n(C)c1=O [Compound 23, 1,3,7-trimethyl-8-(naphthalen-2-ylmethylsulfonyl)-1H-purine-2,6(3H,7H)-dione]",1000 to 1e+06
7,"CCCOc1ccc(OC)cc1CS(=O)(=O)c1nc2c(c(=O)n(C)c(=O)n2C)n1C [Compound 66, 8-(5-methoxy-2-propoxybenzylsulfonyl)-1,3,7-trimethyl-1H-purine-2,6(3H,7H)-dione]",1000 to 1e+06
8,"COc1c(Cl)cccc1CS(=O)(=O)c1nc2c(c(=O)n(C)c(=O)n2C)n1C [Compound 63, 8-(3-chloro-2-methoxybenzylsulfonyl)-1,3,7-trimethyl-1H-purine-2,6(3H,7H)-dione]",1000 to 1e+06
9,"CCSc1nc2c(c(=O)n(C)c(=O)n2C)n1C [Compound 5, 8-(ethylthio)-1,3,7-trimethyl-1H-purine-2,6(3H,7H)-dione]",1000 to 1e+06
10,"Cn1c(=O)c2nc(S(C)(=O)=O)n(C)c2n(C)c1=O [Compound 146, 1,3,9-trimethyl-8-(methylsulfonyl)-3,9-dihydro-1H-purine-2,6-dione]",1000 to 1e+06
11,"CCC[S+]([O-])c1nc2c(c(=O)n(C)c(=O)n2C)n1CC (centres unmarked) [Compound 79, 7-ethyl-1,3-dimethyl-8-(propylsulfinyl)-1H-purine-2,6(3H,7H)-dione]",1000 to 1e+06
12,"Cn1c(=O)c2c(nc(S(=O)(=O)Cc3ccc(C#N)cc3)n2C)n(C)c1=O [Compound 44, 4-((1,3,7-trimethyl-2,6-dioxo-2,3,6,7-tetrahydro-1H-purin-8-ylsulfonyl)methyl)benzonitrile]",1000 to 1e+06
13,"Cn1c(=O)c2c(nc(S(=O)(=O)Cc3cccc(C#N)c3)n2C)n(C)c1=O [Compound 43, 3-((1,3,7-trimethyl-2,6-dioxo-2,3,6,7-tetrahydro-1H-purin-8-ylsulfonyl)methyl)benzonitrile]",1000 to 1e+06
14,"CSc1nc2c(c(=O)n(C)c(=O)n2C)n1CC(N)=O [Compound 85, 2-(1,3-dimethyl-8-(methylthio)-2,6-dioxo-2,3-dihydro-1H-purin-7(6H)-yl)acetamide]",1000 to 1e+06
15,"Cn1c(=O)c2c(nc(S(=O)(=O)Cc3ccc(Cl)cc3)n2C)n(C)c1=O [Compound 31, 8-(4-chlorobenzylsulfonyl)-1,3,7-trimethyl-1H-purine-2,6(3H,7H)-dione]",1000 to 1e+06
16,"Cn1c(=O)c2c(nc(S(=O)(=O)Cc3ccc(Br)c(Cl)c3)n2C)n(C)c1=O [Compound 64, 8-(4-bromo-3-chlorobenzylsulfonyl)-1,3,7-trimethyl-1H-purine-2,6(3H,7H)-dione]",1000 to 1e+06
17,"Cn1c(=O)c2[nH]c(S(C)(=O)=O)nc2n(C)c1=O [Compound 72, 1,3-dimethyl-8-(methylsulfonyl)-1H-purine-2,6(3H,7H)-dione]",1000 to 1e+06
18,"COc1cc(CS(=O)(=O)c2nc3c(c(=O)n(C)c(=O)n3C)n2C)c(OC)cc1F [Compound 71, 8-(4-fluoro-2,5-dimethoxybenzylsulfonyl)-1,3,7-trimethyl-1H-purine-2,6(3H,7H)-dione]",1000 to 1e+06
19,"Cn1c(=O)c2c(nc(S(=O)(=O)c3ccccc3)n2C)n(C)c1=O [Compound 20, 1,3,7-trimethyl-8-(phenylsulfonyl)-1H-purine-2,6(3H,7H)-dione]",1000 to 1e+06
20,"CCOc1ccc(OC)c(CS(=O)(=O)c2nc3c(c(=O)n(C)c(=O)n3C)n2C)c1 [Compound 67, 8-(5-ethoxy-2-methoxybenzylsulfonyl)-1,3,7-trimethyl-1H-purine-2,6(3H,7H)-dione]",1000 to 1e+06
21,"Cn1c(S(C)(=O)=O)nc2c1c(=O)n(-c1ccccc1)c(=O)n2C [Compound 92, 3,7-dimethyl-8-(methylsulfonyl)-1-phenyl-1H-purine-2,6(3H,7H)-dione]",1000 to 1e+06
22,"Cn1c(=O)c2c(nc(S(=O)(=O)Cc3cccnc3)n2C)n(C)c1=O [Compound 50, 1,3,7-trimethyl-8-(pyridin-3-ylmethylsulfonyl)-1H-purine-2,6(3H,7H)-dione]",1000 to 1e+06
23,"CCCSc1nc2c(c(=O)n(C)c(=O)n2C)n1CC [Compound 78, 7-ethyl-1,3-dimethyl-8-(propylthio)-1H-purine-2,6(3H,7H)-dione]",1000 to 1e+06

# Same assay, conditions: Series 1 (Table 1) compounds 147-176; activity extrapolated; read-out: Series 1 compound necroptosis activity (extrapolated)
row,SMILES,EC50 [nM]
1,Cn1c(=O)c2c(nc(S(C)(=O)=O)n2C)n(CC#Cc2ccc3c(c2)NCC3)c1=O [Compound 171],1000 to 1e+06
2,Cn1c(=O)c2c(nc(S(C)(=O)=O)n2C)n(CC#Cc2cccc3[nH]ccc23)c1=O [Compound 169],1000 to 1e+06
3,CNc1cc(C#CCn2c(=O)n(C)c(=O)c3c2nc(S(C)(=O)=O)n3C)ccc1N1CCN(C)CC1 [Compound 175],1000 to 1e+06
4,Cn1c(=O)c2c(nc(S(C)(=O)=O)n2C)n(CC#CC2CCCNC2)c1=O (centres unmarked) [Compound 167],1000 to 1e+06
5,CN(C)CCS(=O)(=O)c1nc2c(c(=O)n(C)c(=O)n2CC#Cc2cccc(O)c2)n1C [Compound 152],1000 to 1e+06
6,Cn1c(=O)c2c(nc(S(C)(=O)=O)n2C)n(CC#Cc2ccc3cc[nH]c3c2)c1=O [Compound 163],1000 to 1e+06
7,CCCC(=O)Nc1cccc(C#CCn2c(=O)n(C)c(=O)c3c2nc(S(=O)(=O)CC2CC2)n3C)c1 [Compound 161],1000 to 1e+06
8,Cn1c(=O)c2c(nc3n2CCCS3(=O)=O)n(CC#Cc2cccc(O)c2)c1=O [Compound 149],1000 to 1e+06

# Same assay, conditions: Series 1 (Table 1) compounds; HT-29 cells, TNF-α/Smac mimetic/z-VAD, 24 hrs, cell viability by ATP level; read-out: Series 1 compound necroptosis activity
row,SMILES,EC50 [nM]
1,"Cn1c(=O)c2c(nc(S(C)(=O)=O)n2C)n(Cc2cccs2)c1=O [Compound 131, 1,7-dimethyl-8-(methylsulfonyl)-3-(thiophen-2-ylmethyl)-1H-purine-2,6(3H,7H)-dione]",1 to 1000
